{"source": "patent US9175299B2", "about": "“Mutation involved in increased tolerance to imidazolinone herbicides in plants” (BASF AGROCHEMICAL PRODUCTS, B.V., priority 2004, dated 2015)", "key": {"M3 Shiloh plants": {"system": "M3 Shiloh plants", "test": "Tolerance rating of M3 progeny field plots sprayed with imazamox at the three-leaf stage", "format": "in vivo, Triticum aestivum", "description": "Samples of 1,500 Shiloh variety seeds were each placed in a 1,000 ml beaker and covered with deionized water to at least 1 inch above the seed level. The beakers were then placed in a refrigerator at 4° C. for 15-20 hours. The seed samples were removed from the refrigerator and brought up to room temperature over an approximately 3 hour period by placing the beaker at room temperature. In some cases, the warming process was accelerated by adding deionized water to the beakers.\nThe deionized water was drained off the seeds, and the beaker was filled with a sodium azide solution to at least 1 inch above the seed level. The sodium azide solution was prepared by adding 27.218 g KH2PO4 to 1,500 ml deionized water, bringing the solution to pH 3 with concentrated H3PO4, and bringing the final solution to 2 L volume with deionized water. Just prior to use, 0.2604 g NaN3 was added, and the solution was kept in the dark. After addition of the sodium azide solution to the seeds, the beakers were incubated in a dark area at room temperature for 2 hours, with occasional stirring.\nThe sodium azide treatment solution was decanted, and the seed samples were rinsed twice with deionized water. Then the seed samples were covered with deionized water to at least 1 inch above seed level and soaked at room temperature for 1 hour, with occasional stirring. The deionized water was decanted, and the seeds were spread evenly on paper towels to dry. The seeds were planted in the field near Berthoud, Colo. in six 5 feet by 40 feet plots. Approximately 15 pounds of M2 seed were harvested, and approximately 466,000 seeds were planted near Platteville, Colo. The fields were sprayed with 1× (40 g ai ha^−1 (imazamox)) or 2× (80 g ai ha^−1 (imazamox)).\nPlants tolerant to the herbicide were identified and transplanted into 1 gallon pots, and put into vernalization for 4 weeks at 45° F. Fourteen single plant selections were made out of the 2× rate area. The tolerant M2 plants were taken out of vernalization, grown out in a Berthoud, Colo. greenhouse, and M3 plants were planted in approximately 4 feet by 5 feet plots near Berthoud, Colo. The plots were sprayed with 80 g ai ha^−1 (imazamox) when the plants were at the three-leaf stage, and the results of the fourteen progenies were rated as shown in Table 1."}, "iShiloh-8/imi GDN F2's": {"system": "iShiloh-8/imi GDN F2's", "test": "Test cross EXP 2001-2 Winter, F2 screen for herbicide tolerance (Table 3)", "format": "in vivo, Triticum aestivum", "description": "(§1) Two test-cross experiments of Shiloh-8 with a known Als1 line were performed."}, "Shiloh-08": {"system": "Shiloh-08", "test": "Greenhouse screen of Shiloh-08 seedlings with imazamox at the three-leaf stage", "format": "in vivo, Triticum aestivum", "conditions": "twelve seeds, 40 g ai ha^−1 imazamox"}, "imi GDN": {"system": "imi GDN", "test": "Test cross EXP 2001-2 Winter, known Als1 line check (Table 3)", "format": "in vivo", "conditions": "number of plants of 2; herbicide not given", "description": "as §1"}, "iSHILOH-08": {"system": "iSHILOH-08", "test": "Multiple field imidazolinone herbicide imazamox tolerance comparisons (Table 5)", "format": "in vivo, Triticum aestivum", "description": "(§2) Agronomic and comparative imidazolinone herbicide imazamox tolerance were then evaluated under field conditions. Table 4 summarizes the yield and agronomic evaluations comparing Shiloh-8 and wild type Shiloh plants. These trials were typical cereal evaluation experiments using incomplete randomized block three replication design. Plots were 1.54 m×4.62 m at harvest. Table 5 summarizes multiple field imidazolinone herbicide imazamox tolerance comparisons between Shiloh-8 and the standard tolerant control […]. These plots ranged from a single row 1 m to larger 1.54 m×4.62 m plots."}, "iShiloh-8/iGDN F2's": {"system": "iShiloh-8/iGDN F2's", "test": "Test cross with a known Als1 line, F2 screen for herbicide tolerance (Table 2)", "format": "in vivo, Triticum aestivum", "conditions": "test cross of Table 2; herbicide not named at this place", "description": "as §1"}, "iShiloh-8": {"system": "iShiloh-8", "test": "Test cross EXP 2001-2 Winter, parent check (Table 3)", "format": "in vivo, Triticum aestivum", "conditions": "number of plants of 8; herbicide not given", "description": "as §1"}, "9604 (iFEDEL)": {"system": "9604 (iFEDEL)", "test": "Multiple field imidazolinone herbicide imazamox tolerance comparisons (Table 5), standard tolerant control", "format": "in vivo, Triticum aestivum", "conditions": "scale 1-no effect 10-dead", "description": "as §2"}, "Shiloh": {"system": "Shiloh", "test": "Test cross EXP 2001-2 Winter, wild type check (Table 3)", "format": "in vivo, Triticum aestivum", "conditions": "number of plants of 7; herbicide not given", "description": "as §1"}, "[1]": {"conditions": "number of plants of 167 F2's, herbicide not given"}}, "data": [{"smiles": "COCc1cnc(C2=NC(C)(C(C)C)C(=O)N2)c(C(=O)O)c1", "note": "(stereo not drawn) [imazamox]", "values": [{"measurement": "Tolerance of M3 Shiloh plants to 80 g ai ha^−1 (imazamox)", "setting": "M3 Shiloh plants; line Shiloh-01, 80 g ai ha^−1, three-leaf stage", "result": "Medium MR-MS"}, {"measurement": "Tolerance of M3 Shiloh plants to 80 g ai ha^−1 (imazamox)", "setting": "M3 Shiloh plants; line Shiloh-03, 80 g ai ha^−1, three-leaf stage", "result": "Discard-Sensitive"}, {"measurement": "Tolerance of M3 Shiloh plants to 80 g ai ha^−1 (imazamox)", "setting": "M3 Shiloh plants; line Shiloh-04, 80 g ai ha^−1, three-leaf stage", "result": "Discard-Sensitive"}, {"measurement": "Tolerance of M3 Shiloh plants to 80 g ai ha^−1 (imazamox)", "setting": "M3 Shiloh plants; line Shiloh-05, 80 g ai ha^−1, three-leaf stage", "result": "Discard-Sensitive"}, {"measurement": "Tolerance of M3 Shiloh plants to 80 g ai ha^−1 (imazamox)", "setting": "M3 Shiloh plants; line Shiloh-06, 80 g ai ha^−1, three-leaf stage", "result": "Discard-Sensitive"}, {"measurement": "Tolerance of M3 Shiloh plants to 80 g ai ha^−1 (imazamox)", "setting": "M3 Shiloh plants; line Shiloh-07, 80 g ai ha^−1, three-leaf stage", "result": "Discard-Sensitive"}, {"measurement": "Tolerance of M3 Shiloh plants to 80 g ai ha^−1 (imazamox)", "setting": "M3 Shiloh plants; line Shiloh-08, 80 g ai ha^−1, three-leaf stage", "result": "All Good MR-R"}, {"measurement": "Tolerance of M3 Shiloh plants to 80 g ai ha^−1 (imazamox)", "setting": "M3 Shiloh plants; line Shiloh-09, 80 g ai ha^−1, three-leaf stage", "result": "Discard-Sensitive"}, {"measurement": "Tolerance of M3 Shiloh plants to 80 g ai ha^−1 (imazamox)", "setting": "M3 Shiloh plants; line Shiloh-10, 80 g ai ha^−1, three-leaf stage", "result": "Discard-Sensitive"}, {"measurement": "Tolerance of M3 Shiloh plants to 80 g ai ha^−1 (imazamox)", "setting": "M3 Shiloh plants; line Shiloh-11, 80 g ai ha^−1, three-leaf stage", "result": "Discard-Sensitive"}, {"measurement": "Tolerance of M3 Shiloh plants to 80 g ai ha^−1 (imazamox)", "setting": "M3 Shiloh plants; line Shiloh-12, 80 g ai ha^−1, three-leaf stage", "result": "Discard-Sensitive"}, {"measurement": "Tolerance of M3 Shiloh plants to 80 g ai ha^−1 (imazamox)", "setting": "M3 Shiloh plants; line Shiloh-13, 80 g ai ha^−1, three-leaf stage", "result": "Discard-Sensitive"}, {"measurement": "Tolerance of M3 Shiloh plants to 80 g ai ha^−1 (imazamox)", "setting": "M3 Shiloh plants; line Shiloh-14, 80 g ai ha^−1, three-leaf stage", "result": "Medium MR-MS"}, {"measurement": "DGP+ Brown sheath", "setting": "iShiloh-8/imi GDN F2's; [1]", "result": 0}, {"measurement": "Dead or Dying growth point", "setting": "iShiloh-8/imi GDN F2's; [1]", "result": 0}, {"measurement": "Strong Survivors", "setting": "iShiloh-8/imi GDN F2's; [1]", "result": 140}, {"measurement": "Winkled or stunted", "setting": "iShiloh-8/imi GDN F2's; [1]", "result": 27}, {"measurement": "Genetic segregation for tolerance in the F2 population", "setting": "iShiloh-8/imi GDN F2's; test cross of Table 3, herbicide not named at this place", "result": "no genetic segregation for tolerance"}, {"measurement": "Reaction of Shiloh-08 plants to imazamox screen", "setting": "Shiloh-08", "result": "confirmed a heritable homozygous reaction"}, {"measurement": "DGP+ Brown sheath", "setting": "imi GDN", "result": 0}, {"measurement": "Dead or Dying growth point", "setting": "imi GDN", "result": 0}, {"measurement": "Strong Survivors", "setting": "imi GDN", "result": 1}, {"measurement": "Winkled or stunted", "setting": "imi GDN", "result": 1}, {"measurement": "′99-′00 Rate D&O Plateville, CO (early) 4 oz/ac", "setting": "iSHILOH-08; 4 oz/ac, early, scale 1-no effect 10-dead", "result": 2}, {"measurement": "′99-′00 Rate D&O Quinter, KS (early) 4 oz/ac", "setting": "iSHILOH-08; 4 oz/ac, early, scale 1-no effect 10-dead, spring application, temperature dropped 19° F. the night following application", "result": 2}, {"measurement": "′99-′00 Rate D&O Quinter, KS (late) 4 oz/ac", "setting": "iSHILOH-08; 4 oz/ac, late, scale 1-no effect 10-dead, spring application, temperature dropped 19° F. the night following application", "result": 5}, {"measurement": "′99-′00 Rate D&O Plateville, CO (early) 8 oz/ac", "setting": "iSHILOH-08; 8 oz/ac, early, scale 1-no effect 10-dead", "result": 3}, {"measurement": "′99-′00 Rate D&O Quinter, KS (early) 8 oz/ac", "setting": "iSHILOH-08; 8 oz/ac, early, scale 1-no effect 10-dead, spring application, temperature dropped 19° F. the night following application", "result": 3}, {"measurement": "′99-′00 Rate D&O Quinter, KS (late) 8 oz/ac", "setting": "iSHILOH-08; 8 oz/ac, late, scale 1-no effect 10-dead, spring application, temperature dropped 19° F. the night following application", "result": 6}, {"measurement": "Sum ′99 M3 Progeny Rating (8 oz/ac) Field", "setting": "iSHILOH-08; 8 oz/ac, field", "result": "R-MR"}, {"measurement": "Genetic segregation for tolerance in the F2 population", "setting": "iShiloh-8/iGDN F2's", "result": "no genetic segregation for tolerance"}, {"measurement": "DGP+ Brown sheath", "setting": "iShiloh-8", "result": 0}, {"measurement": "Dead or Dying growth point", "setting": "iShiloh-8", "result": 0}, {"measurement": "Strong Survivors", "setting": "iShiloh-8", "result": 7}, {"measurement": "Winkled or stunted", "setting": "iShiloh-8", "result": 1}, {"measurement": "′99-′00 Rate D&O Plateville, CO (early) 4 oz/ac", "setting": "9604 (iFEDEL); 4 oz/ac, early", "result": 1}, {"measurement": "′99-′00 Rate D&O Quinter, KS (early) 4 oz/ac", "setting": "9604 (iFEDEL); 4 oz/ac, early, spring application, temperature dropped 19° F. the night following application", "result": 1}, {"measurement": "′99-′00 Rate D&O Quinter, KS (late) 4 oz/ac", "setting": "9604 (iFEDEL); 4 oz/ac, late, spring application, temperature dropped 19° F. the night following application", "result": 8}, {"measurement": "′99-′00 Rate D&O Plateville, CO (early) 8 oz/ac", "setting": "9604 (iFEDEL); 8 oz/ac, early", "result": 2}, {"measurement": "′99-′00 Rate D&O Quinter, KS (early) 8 oz/ac", "setting": "9604 (iFEDEL); 8 oz/ac, early, spring application, temperature dropped 19° F. the night following application", "result": 2}, {"measurement": "′99-′00 Rate D&O Quinter, KS (late) 8 oz/ac", "setting": "9604 (iFEDEL); 8 oz/ac, late, spring application, temperature dropped 19° F. the night following application", "result": 8}, {"measurement": "DGP+ Brown sheath", "setting": "Shiloh", "result": 7}, {"measurement": "Dead or Dying growth point", "setting": "Shiloh", "result": 0}, {"measurement": "Strong Survivors", "setting": "Shiloh", "result": 0}, {"measurement": "Winkled or stunted", "setting": "Shiloh", "result": 0}]}]}
